Test results reported in the supplement of paper PMC10307832.

Columns and labels:
Test in all cases: relative viability (nuclei count vs DMSO), 5 days (fraction); higher = more cells survive
IMD-0354 + Phenformin = compound: O=C(Nc1cc(C(F)(F)F)cc(C(F)(F)F)c1)c1cc(Cl)ccc1O [IMD-0354] + N=C(N)NC(=N)NCCc1ccccc1 [Phenformin] (partner 250 µM)
Procedure, shortened: (§1)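 After 5 days of treatment, lung cancer cells in 1536-well plates were fixed and stained in a single step (final 0.05% Triton X-100, 1% formaldehyde, 1 ug/ml Hoechst) and their nuclei counted on 4× images. Treatment had been applied by pin tool the day after seeding as one drug alone or as a fixed anchor-drug dose with five library-drug doses (not always all listed) in √10 steps. Relative viability is the nuclei count of treated wells divided by that of vehicle wells, and values are medians of duplicate plates.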

IMD-0354 + Tozasertib = compound: O=C(Nc1cc(C(F)(F)F)cc(C(F)(F)F)c1)c1cc(Cl)ccc1O [IMD-0354] + Cc1cc(Nc2cc(N3CCN(C)CC3)nc(Sc3ccc(NC(=O)C4CC4)cc3)n2)n[nH]1 [Tozasertib] (partner 0.1 µM)
Procedure, shortened: as §1

IMD-0354 + Palbociclib = compound: O=C(Nc1cc(C(F)(F)F)cc(C(F)(F)F)c1)c1cc(Cl)ccc1O [IMD-0354] + CC(=O)c1c(C)c2cnc(Nc3ccc(N4CCNCC4)cn3)nc2n(C2CCCC2)c1=O [Palbociclib] (partner 0.5 µM)
Procedure, shortened: as §1

IMD-0354 + Alpelisib = compound: O=C(Nc1cc(C(F)(F)F)cc(C(F)(F)F)c1)c1cc(Cl)ccc1O [IMD-0354] + Cc1nc(NC(=O)N2CCC[C@H]2C(N)=O)sc1-c1ccnc(C(C)(C)C(F)(F)F)c1 [Alpelisib] (partner 2 µM)
Procedure, shortened: as §1

Row | Cell Line | relative viability (IMD-0354 + Phenformin; first compound 0.04 µM) | relative viability (IMD-0354 + Phenformin; first compound 0.1265 µM) | relative viability (IMD-0354 + Phenformin; first compound 0.4 µM) | relative viability (IMD-0354 + Phenformin; first compound 1.265 µM) | relative viability (IMD-0354 + Phenformin; first compound 4 µM) | relative viability (IMD-0354 + Tozasertib; first compound 0.04 µM) | relative viability (IMD-0354 + Tozasertib; first compound 0.1265 µM) | relative viability (IMD-0354 + Tozasertib; first compound 0.4 µM) | relative viability (IMD-0354 + Tozasertib; first compound 1.265 µM) | relative viability (IMD-0354 + Tozasertib; first compound 4 µM) | relative viability (IMD-0354 + Palbociclib; first compound 0.04 µM) | relative viability (IMD-0354 + Palbociclib; first compound 0.1265 µM) | relative viability (IMD-0354 + Palbociclib; first compound 0.4 µM) | relative viability (IMD-0354 + Palbociclib; first compound 1.265 µM) | relative viability (IMD-0354 + Palbociclib; first compound 4 µM) | relative viability (IMD-0354 + Alpelisib; first compound 0.04 µM) | relative viability (IMD-0354 + Alpelisib; first compound 0.1265 µM) | relative viability (IMD-0354 + Alpelisib; first compound 0.4 µM) | relative viability (IMD-0354 + Alpelisib; first compound 1.265 µM) | relative viability (IMD-0354 + Alpelisib; first compound 4 µM)
1 | LXF-289 | 0.548 | 0.504 | 0.329 | 0.124 | 0.0658 | 0.229 | 0.235 | 0.154 | 0.0929 | 0.053 | 0.565 | 0.61 | 0.454 | 0.435 | 0.0922 | 1.09 | 1.06 | 0.711 | 0.265 | 0.0502
2 | NCI-H23 | 0.811 | 0.81 | 0.313 | 0.198 | 0.189 | 0.338 | 0.376 | 0.275 | 0.157 | 0.186 | 0.482 | 0.418 | 0.349 | 0.153 | 0.189 | 0.802 | 0.695 | 0.412 | 0.435 | 0.243
3 | NCI-H322M | 0.865 | 0.796 | 0.378 | 0.277 | 0.375 | 0.469 | 0.471 | 0.387 | 0.289 | 0.359 | 0.507 | 0.5 | 0.5 | 0.39 | 0.41 | 0.717 | 0.607 | 0.695 | 0.834 | 0.475
4 | NCI-H358 | 0.348 | 0.241 | 0.17 | 0.121 | 0.0927 | 0.11 | 0.1 | 0.0993 | 0.0845 | 0.0798 | 0.144 | 0.136 | 0.119 | 0.0987 | 0.101 | 0.944 | 0.746 | 0.429 | 0.223 | 0.306
5 | NCI-H441 | 0.79 | 0.693 | 0.45 | 0.177 | 0.262 | 0.79 | 0.667 | 0.397 | 0.295 | 0.24 | 0.214 | 0.196 | 0.366 | 0.12 | 0.146 |  | 0.78 | 0.398 | 0.285 | 0.217
6 | NCI-H460 | 0.514 | 0.365 | 0.103 | 0.0203 | 0.0155 | 0.485 | 0.35 | 0.443 | 0.127 | 0.0269 | 0.147 | 0.138 | 0.206 | 0.024 | 0.04 | 0.544 | 0.49 | 0.2 | 0.0672 | 0.0154
7 | NCI-H520 | 0.738 | 0.51 | 0.299 | 0.168 | 0.194 | 0.441 | 0.379 | 0.385 | 0.347 | 0.229 | 0.199 | 0.22 | 0.215 | 0.136 | 0.121 | 0.906 | 0.948 | 0.381 | 0.383 | 0.214
8 | NCI-H647 | 0.784 | 0.376 | 0.283 | 0.129 | 0.0531 | 0.441 | 0.379 | 0.223 | 0.169 |  | 0.481 | 0.485 | 0.174 | 0.056 | 0.0731 | 1.77 | 0.995 | 0.623 | 0.144 | 0.173
